Earlier results in paper PMC9503778, “Targeted Isolation of Antibiotic Brominated Alkaloids from the Marine Sponge Pseudoceratina durissima Using Virtual Screening and Molecular Networking” (Marine Drugs, 2022).

Experiments:
Set-up in all cases: method as in PMID 29702602
[1] = tested on: reef fish (Acanthus triostegus); details: dosed feeding experiments; cited from earlier work
[2] = tested on: fresh water fish (Poecilia reticulata); details: dosed feeding experiments; cited from earlier work
fish = details: 100 µg/mL; cited from earlier work

CN(C)CCCOc1c(Br)cc(/C=C/C(=O)N(C)CCCOc2c(Br)cc(CCN(C)C)cc2Br)cc1Br [psammaplysene D]
feeding behavior of reef fish (Acanthus triostegus) [1]: significant curtailing in feeding behavior | feeding behavior of fresh water fish (Poecilia reticulata) [2]: significant curtailing in feeding behavior | fish behavior during acute exposure (fish): the fish became totally confused and experienced uncontrolled mobility
